Measurements taken from publication PMC8706516, “Spray-Dried Powder Formulation of Capreomycin Designed for Inhaled Tuberculosis Therapy” (Pharmaceutics, 2021).
Where two headings read alike, the source gives them in different places. Marks after values point to notes of the source that are not given here.

Type: in vivo, BALB/c mice
Settings: 20 mg/kg
Protocol: BALB/c mice of either gender aged 7 to 9 weeks weighing between 18 to 30 g were employed in this study. The mice were obtained from the Centre for Comparative Medicine Research, The University of Hong Kong. They were housed in a 12-h light/12-h dark cycle with food and water supplied ad libitum. All the animal experiments were performed with the approval from the Committee on the Use of Live Animals in Teaching and Research, The University of Hong Kong (CULATR 4921-19, approved on 1 February 2019).
The mice were randomly divided into two treatment groups (n = 45 per group, five mice per time point, nine time points in total). The intravenous (IV) group received capreomycin (sulfate) solution prepared in normal saline (4 mg/mL) via tail vein injection at a dose of 20 mg/kg. Intratracheal (IT) group received the C25_T90 formulation as powder aerosol intratracheally as previously described. In brief, the powder was loaded in a 200 µL gel loading pipette tip, which was connected with a three-way stopcock and 1 mL syringe. The pipette tip was inserted into the trachea of mice under anesthesia. The powder was dispersed into the lungs of mice by 0.6 mL of air in the syringe. After each powder insufflation, the pipette tip was removed and rinsed with 1 mL ultra-pure water. The rinsing solution was assayed by HPLC to calculate the residual mass of capreomycin in the tip. The delivered mass of capreomycin was calculated as drug content in the loaded mass of powder minus the residual mass of capreomycin in the tip. The insufflation efficiency (%) was the ratio of delivered mass of capreomycin to the loaded mass of capreomycin. According to a preliminary study, the insufflation efficiency of C25_T90 formulation was around 80% (unpublished data). […] The delivered dose within 17.5 to 22.5 mg/kg was considered successful administration, and mice that received dose outside this range were excluded. At 5 min, 15 min, 30 min, 1 h, 2 h, 4 h, 6 h, 8 h, and 24 h post-administration, the mice were euthanized with overdose pentobarbital (200 mg/kg). The whole blood was collected by cardiac puncture, followed by centrifugation at 13,000 rpm for 10 min to obtain the plasma. The lungs were collected and frozen in liquid nitrogen immediately. The plasma and lung tissues were stored at −80 °C until further analysis.
The extraction of capreomycin from plasma and tissue homogenates was performed according to a previous study with minor modification. Tissue homogenates were obtained by homogenizing the tissue with sterile water. A volume of 1 µL perchloric acid was added to a microcentrifuge tube containing 100 µL of plasma or tissue homogenates to induce protein precipitation. The mixtures were vortexed for 10 min and centrifuged at 16,000× g for 10 min. The supernatant was collected and neutralized with 110 µL basic mix of 1:10 KOH/K2HPO4 solution. The obtained mixtures were then vortexed, followed by centrifugation at 16,000× g for 15 min. The supernatant was transferred to glass vials for HPLC analysis. A standard curve was obtained by spiking known concentrations of capreomycin (0.6 to 40.0 µg/mL) into blank plasma or blank lung tissue homogenate followed by treatment as mentioned above. HPLC was performed using a C18 column (5 μm, 4.6 × 250 mm, Agilent, Santa Clara, CA, USA) with a guard cartridge. In this HPLC method, HFBA replaced TFA to improve peak resolution of the samples. The mobile phase consisted of 0.1% HFBA in ultrapure water (solvent A) and 0.1% HFBA in HPLC grade acetonitrile (solvent B), pumped at 1 mL/min under the following gradient: 0 to 2 min, 80% A; 2 to 22 min, 80–20% A; 22 to 25 min, 20% A (v/v). A volume of 50 µL sample was injected and capreomycin was detected by UV absorption at 268 nm. Capreomycin eluted at approximately 9.7 min with this method. […]

[1] = lung tissue, intravenous solution
[2] = lung tissue, intravenous, solution in normal saline, HPLC-UV, noncompartmental, mean ± SD, n = 5
[3] = lung tissue, intravenous, solution in normal saline, HPLC-UV, noncompartmental, mean ± SD, only three sets of data
[4] = plasma, intravenous, solution in normal saline, HPLC-UV, noncompartmental, mean ± SD, n = 5

In the case of Capreomycin, the “Time after administration at which capreomycin was no longer detectable in the lung” value [1] is reported as 1 h, the “Time to Cmax” value [1] is reported as no more than 20 min and the “AUC0–t” value [2] is reported as 6710 ± 510 ng·h/mL. The Cmax [2] was 18.23 ± 8.34 µg/g, the MRT [2] was 13.8 ± 7.8 min and the Tmax [2] was 7.2 ± 4.2 min. For the same substance, the “AUC0–∞” value [3] was 7.78 ± 0.46 ^b µg·h/mL, the Kel [3] was 2.37 ± 0.23 ^b h^−1 and the t1/2 [3] was 0.29 ± 0.03 ^b h. For the same substance, the Cmax [4] was 74.89 ± 10.94 µg/mL, the “Tmax” value (plasma, intravenous solution) was no more than 10 min and the “AUC0–t” value [4] was 32550 ± 5520 ng·h/mL. For the same substance, the “AUC0–∞” value [4] was 33.78 ± 5.54 µg·h/mL, the Kel [4] was 2.74 ± 1.67 h⁻¹ and the t1/2 [4] was 0.34 ± 0.20 h.
